Test results reported in patent US7279499B2, “Substituted benzopyrans as selective estrogen receptor-beta agonists” (Eli Lilly and Company, priority 2004, dated 2007).

| SMILES | melting point [°C] |
| --- | --- |
| CCOCc1cc(O)cc2c1O[C@@H](c1ccc(O)cc1)[C@H]1CCC[C@@H]21 (single isomer, unassigned) [Example 3B] | 62 to 66 |
| OCc1cc(O)cc2c1O[C@@H](c1ccc(O)cc1)[C@H]1CCC[C@@H]21 (single isomer, unassigned) [Example 2B] | 195 to 197 |
| COCc1cc(O)cc2c1O[C@@H](c1ccc(O)cc1)[C@H]1CCC[C@@H]21 [Example 1B, (3aS, 4R, 9bR)-4-(4-Hydroxy-phenyl)-6-methoxymethyl-1,2,3,3a,4,9b-hexahydro-cyclopenta[c]chromen-8-ol] | 76 to 80 |
